In patent US12077503B2, “Substituted cyclic amides and their use as herbicides” (FMC CORPORATION, priority 2015, dated 2024):

What was measured:
Test in all cases: Test C postemergence
Assay type in all cases: in vivo
Conditions in all cases: scale 0 to 100, 0 no effect, 100 complete control
[1] = system: Kochia (Kochia scoparia)
How it was run: (§1)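 Greenhouse test: seeds in a loam and sand blend treated preemergence, or seedlings at the 1- to 4-leaf stage (2 to 18 cm) in a peat, vermiculite and limestone mix treated postemergence, with test chemicals in a surfactant-containing non-phytotoxic solvent. Scored by eye at 13 to 15 d relative to controls, 0 (no effect) to 100 (complete control).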

[2] = system: barnyardgrass (Echinochloa crus-galli)
How it was run: as §1

[3] = system: chickweed (common chickweed, Stellaria media)
How it was run: as §1

[4] = system: corn (Zea mays)
How it was run: as §1

[5] = system: foxtail, giant (giant foxtail, Setaria faberii)
How it was run: as §1

[6] = system: johnsongrass (Sorghum halepense)
How it was run: as §1

[7] = system: lambsquarters (Chenopodium album)
How it was run: as §1

[8] = system: morningglory (Ipomoea coccinea)
How it was run: as §1

[9] = system: nutsedge, yellow (yellow nutsedge, Cyperus esculentus)
How it was run: as §1

[10] = system: oat, wild (wild oat, Avena fatua)
How it was run: as §1

[11] = system: ragweed (common ragweed, Ambrosia elatior)
How it was run: as §1

[12] = system: ryegrass, Italian (Italian ryegrass, Lolium multiflorum)
How it was run: as §1

[13] = system: soybean (Glycine max)
How it was run: as §1

[14] = system: velvetleaf (Abutilon theophrasti)
How it was run: as §1

[15] = system: waterhemp (common waterhemp, Amaranthus rudis)
How it was run: as §1

[16] = system: wheat (winter wheat, Triticum aestivum)
How it was run: as §1

CN1CC(c2ccc(F)c(F)c2)C(C(=O)Nc2ccccc2C(F)(F)F)C1=O (stereo not drawn) [Compound 641]
35: Plant response rating, Barnyardgrass ([2]; 125 g ai/ha) | Plant response rating, Morningglory ([8]; 125 g ai/ha)
5: Plant response rating, Lambsquarters ([7]; 31 g ai/ha) | Plant response rating, Lambsquarters ([7]; 125 g ai/ha) | Plant response rating, Soybean ([13]; 125 g ai/ha)
80: Plant response rating, Foxtail, Giant ([5]; 250 g ai/ha)
10: Plant response rating, Barnyardgrass ([2]; 62 g ai/ha) | Plant response rating, Corn ([4]; 250 g ai/ha) | Plant response rating, Foxtail, Giant ([5]; 62 g ai/ha) | Plant response rating, Ryegrass, Italian ([12]; 125 g ai/ha) | Plant response rating, Ryegrass, Italian ([12]; 250 g ai/ha) | Plant response rating, Waterhemp ([15]; 31 g ai/ha) | Plant response rating, Waterhemp ([15]; 62 g ai/ha)
30: Plant response rating, Lambsquarters ([7]; 250 g ai/ha) | Plant response rating, Ragweed ([11]; 250 g ai/ha) | Plant response rating, Waterhemp ([15]; 250 g ai/ha)
55: Plant response rating, Chickweed ([3]; 250 g ai/ha)
0: Plant response rating, Kochia ([1]; 31 g ai/ha) | Plant response rating, Kochia ([1]; 62 g ai/ha) | Plant response rating, Kochia ([1]; 125 g ai/ha) | Plant response rating, Barnyardgrass ([2]; 31 g ai/ha) | Plant response rating, Chickweed ([3]; 31 g ai/ha) | Plant response rating, Chickweed ([3]; 62 g ai/ha) | Plant response rating, Corn ([4]; 31 g ai/ha) | Plant response rating, Corn ([4]; 62 g ai/ha) | Plant response rating, Corn ([4]; 125 g ai/ha) | Plant response rating, Foxtail, Giant ([5]; 31 g ai/ha) | Plant response rating, Johnsongrass ([6]; 31 g ai/ha) | Plant response rating, Johnsongrass ([6]; 62 g ai/ha) | Plant response rating, Johnsongrass ([6]; 125 g ai/ha) | Plant response rating, Johnsongrass ([6]; 250 g ai/ha) | Plant response rating, Morningglory ([8]; 31 g ai/ha) | Plant response rating, Nutsedge, Yellow ([9]; 31 g ai/ha) | Plant response rating, Nutsedge, Yellow ([9]; 62 g ai/ha) | Plant response rating, Nutsedge, Yellow ([9]; 125 g ai/ha) | Plant response rating, Nutsedge, Yellow ([9]; 250 g ai/ha) | Plant response rating, Oat, Wild ([10]; 31 g ai/ha) | Plant response rating, Oat, Wild ([10]; 62 g ai/ha) | Plant response rating, Oat, Wild ([10]; 125 g ai/ha) | Plant response rating, Oat, Wild ([10]; 250 g ai/ha) | Plant response rating, Ragweed ([11]; 31 g ai/ha) | Plant response rating, Ragweed ([11]; 62 g ai/ha) | Plant response rating, Ryegrass, Italian ([12]; 31 g ai/ha) | Plant response rating, Ryegrass, Italian ([12]; 62 g ai/ha) | Plant response rating, Soybean ([13]; 31 g ai/ha) | Plant response rating, Soybean ([13]; 62 g ai/ha) | Plant response rating, Wheat ([16]; 31 g ai/ha) | Plant response rating, Wheat ([16]; 62 g ai/ha) | Plant response rating, Wheat ([16]; 125 g ai/ha) | Plant response rating, Wheat ([16]; 250 g ai/ha)
50: Plant response rating, Chickweed ([3]; 125 g ai/ha) | Plant response rating, Velvetleaf ([14]; 250 g ai/ha)
65: Plant response rating, Barnyardgrass ([2]; 250 g ai/ha) | Plant response rating, Foxtail, Giant ([5]; 125 g ai/ha)
40: Plant response rating, Kochia ([1]; 250 g ai/ha) | Plant response rating, Morningglory ([8]; 250 g ai/ha) | Plant response rating, Ragweed ([11]; 125 g ai/ha) | Plant response rating, Velvetleaf ([14]; 31 g ai/ha) | Plant response rating, Velvetleaf ([14]; 62 g ai/ha)
15: Plant response rating, Lambsquarters ([7]; 62 g ai/ha) | Plant response rating, Morningglory ([8]; 62 g ai/ha) | Plant response rating, Soybean ([13]; 250 g ai/ha)
25: Plant response rating, Waterhemp ([15]; 125 g ai/ha)
